Converted amounts (≈) assume the structure as drawn.
Tests used:
[1] = system: PAPp26 Murine Keratinocytes; conditions: proliferation assay
Procedure: In these experiments Murine keratinocyte transformed cell line PAPp26 was cultured in Dulbecco's modified Eagle's medium with 10% fetal calf serum at 37° C., 5% CO2. Each well of a 96 well plate was seeded with 2000 cells in 200 μl of each drug dilution in duplicate. A plate was stopped and fixed for each time point, stained with Giemsa and then read in a Titertek plate reader at 650 nm, and the absorbances were calibrated with known cell numbers on control plates.

psoriasis = conditions: cited from earlier work; for side effects in psoriasis treatment: in vivo; for efficacy in psoriasis: mycophenolic acid given orally; for clearing of psoriatic lesions: used experimentally
[2] = system: pig skin epidermal basal cells (keratinocytes); experiment: UV induced hyperproliferation in pig skin in vivo (topical antiproliferative activity)
Procedure: The topical antiproliferative activities, along with in vitro antiproliferative activities against human keratinocytes and fibroblasts, provide the biological data in support of the claimed utility:
In one experiment, a 20 kg pig was sedated and multiple areas of clipped skin were exposed to uv radiation sufficient to provoke a moderate hyperproliferative response within several days of exposure. On days 0, 1, 2 and 3 replicate irradiated sites were treated topically with Compound A in several vehicles or solvents. Topical preparations included a 2% drug in Gel #1, a combination of isopropyl myristate:Crodamol:ethanol, 1:1:2, or DMSO. The hyperproliferative response of the skin to uv was assessed on day 4 by injecting ^3 H-thymidine intradermally, and, 1 hour later, removing the sites by punch biopsy and processing the samples for autoradiography. Such autoradiographs indicate the number of epidermal cells in S phase synthesizing DNA and this is a common tool used by dermatologists to assess inhibition of proliferation in vivo. A single injection of methotrexate, 4 hours prior to ^3 H-thymidine injection was used as a positive control for inhibition of DNA synthesis. A labelling index, L.I., which is the percent of the total number of epidermal basal cells (keratinocytes) counted showing label incorporation. Four days after exposure to uv, the L.I. of pig skin increased from 7.6% to 20.8% (normal human skin ca. 2%, psoriatic lesions ca. 25%, for comparison).

Structure (SMILES) | ED50 PAPp26 [1] | side effects in psoriasis treatment (psoriasis) | efficacy in psoriasis (psoriasis) | further results
Cc1cc(Cn2nnc(C(N)=O)c2N)cc(Cl)c1C(=O)c1ccc(C(F)(F)F)cc1 [(E)] | 2 µg/mL (≈ 4.57 µM) |  |  | 
COc1c(C)c2c(c(O)c1C/C=C(\C)CCC(=O)O)C(=O)OC2 [Mycophenolic acid] |  | unacceptable side effects | controls psoriasis by causing remission when given orally | clearing of psoriatic lesions (psoriasis): success in clearing lesions
NC(=O)c1nnn(Cc2cc(Cl)c(C(=O)c3ccc(Cl)cc3)c(Br)c2)c1N [(G)] | 2 µg/mL (≈ 4.26 µM) |  |  | 
NC(=O)c1nnn(Cc2ccc(Sc3ccc(Cl)cc3)c(C(F)(F)F)c2)c1N [(D)] | 1 to 2 µg/mL (≈ 2.34 to 4.67 µM) |  |  | 
NC(=O)c1nnn(Cc2ccc(Sc3ccc(Cl)cc3)c(Cl)c2)c1N [(C)] | 1 to 2 µg/mL (≈ 2.54 to 5.07 µM) |  |  | 
N#Cc1ccc(C(=O)c2c(Cl)cc(Cn3nnc(C(N)=O)c3N)cc2Cl)cc1 [(F)] | 2 µg/mL (≈ 4.82 µM) |  |  | 
Cc1cc(Cn2nnc(C(N)=O)c2N)cc(Cl)c1Oc1ccc(Cl)cc1 [(L)] | 2 µg/mL (≈ 5.1 µM) |  |  | 
Nc1nc2nc[nH]c2c(=S)[nH]1 [thioguanine] |  | unacceptable side effects due to toxicity | effective in treating the disease | clearing of psoriatic lesions (psoriasis): success in clearing lesions
NC(=O)c1nnn(Cc2cc(Cl)c(Oc3ccc(Br)cc3)c(Cl)c2)c1N [(H)] | 1 to 2 µg/mL (≈ 2.19 to 4.38 µM) |  |  | 
O=c1[nH]cc(F)c(=O)[nH]1 [fluorouracil] |  | unacceptable side effects due to toxicity | effective in treating the disease | 
NC(=O)c1nnn(Cc2cc(Cl)c(C(=O)c3ccc(Br)cc3)c(Cl)c2)c1N [(J)] | 1 to 2 µg/mL (≈ 2.13 to 4.26 µM) |  |  | 
O=C(O)C[C@H](NC(=O)CP(=O)(O)O)C(=O)O [N-phosphonacetyl-L-aspartate] |  | unacceptable side effects due to toxicity | effective in treating the disease | 
NC(=O)c1nnn(Cc2cc(Cl)c(C(=O)c3ccc(Cl)cc3)c(Cl)c2)c1N [(B)] | 2 µg/mL (≈ 4.71 µM) |  |  | 
CN(Cc1cnc2nc(N)nc(N)c2n1)c1ccc(C(=O)N[C@@H](CCC(=O)O)C(=O)O)cc1 [Methotrexate, methotrexate, reference compound] |  | unacceptable side effects due to toxicity | effective in treating the disease | UV induced hyperproliferation, % Inhibition ([2]; i.d. injection): 93%; Labelled Cells ([2]; i.d., single injection 4 hours prior to 3H-thymidine, of 1175 basal cells counted): 100; LI (labelling index) ([2]; i.d., uv exposed Gel #1 control 20.8, normal 7.6): 8.5%
NC(=O)c1nnn(Cc2cc(Cl)c(Oc3ccc([N+](=O)[O-])cc3)c(Cl)c2)c1N [(K)] | 2 µg/mL (≈ 4.73 µM) |  |  | 
